One data set deals with Oryza sativa. The data set can be described thus: Effect on Oryza sativa (rice) assessed as growth rate at 10 uM relative to control. In kind it is organism-based. Particulars: in vivo.
With `CCOC(=O)c1ccc(NC(=O)N[C@H](C)c2ccccc2)cc1`, the Activity was 92%.

Turning to `C[C@@H](NC(=O)Nc1ccccc1F)c1ccccc1`, the Activity is 77%.

Consider `CC(C)c1ccc(NC(=O)N[C@@H](C)c2ccccc2)cc1`, for which the Activity is given as 86%.

As to `CCOC(=O)c1ccccc1NC(=O)N[C@H](C)c1ccccc1`, the Activity turned out to be 100%.

Regarding `Cc1ccc(NC(=O)N[C@@H](C)c2ccccc2)c(F)c1`, the Activity is listed as 100%.

Take `CCCc1ccc(NC(=O)N[C@@H](C)c2ccccc2)cc1`: the Activity stood at 73%.

`C[C@H](NC(=O)Nc1cccc(F)c1)c1ccccc1`: the Activity was 88%.

As to `C[C@H](NC(=O)Nc1ccc(F)cc1)c1ccccc1`, the Activity was 85%.

In the case of `C[C@@H](NC(=O)Nc1ccc(F)c(F)c1)c1ccccc1`, the Activity turned out to be 96%.

Consider `CC(=O)c1ccc(NC(=O)N[C@H](C)c2ccccc2)cc1`, for which the Activity was determined as 84%.

In a further data set the test system is Oryza sativa. Kind of data set: Safener indices, ratio of compound effect of Oryza sativa (rice) growth rate to relieving activity against bensulfuron-methyl induced injury to Oryza sativa growth rate at 10 uM.
Conditions: not given
`CCOC(=O)c1ccc(NC(=O)N[C@H](C)c2ccccc2)cc1`: the Ratio was determined as 79.

`C[C@@H](NC(=O)Nc1ccccc1F)c1ccccc1`: the Ratio worked out at 62.

As to `CC(C)c1ccc(NC(=O)N[C@@H](C)c2ccccc2)cc1`, the Ratio came out at 66.

Take `CCOC(=O)c1ccccc1NC(=O)N[C@H](C)c1ccccc1`: the Ratio turned out to be 54.

Take `Cc1ccc(NC(=O)N[C@@H](C)c2ccccc2)c(F)c1`: the Ratio worked out at 89.

As for `CCCc1ccc(NC(=O)N[C@@H](C)c2ccccc2)cc1`, the Ratio is on record as 50.

With `C[C@H](NC(=O)Nc1cccc(F)c1)c1ccccc1`, the Ratio was 62.

Consider `C[C@H](NC(=O)Nc1ccc(F)cc1)c1ccccc1`, for which the Ratio stood at 74.

Take `C[C@@H](NC(=O)Nc1ccc(F)c(F)c1)c1ccccc1`: the Ratio was 47.

For the compound `CC(=O)c1ccc(NC(=O)N[C@H](C)c2ccccc2)cc1`, the Ratio was 65.

Another data set has as its system Oryza sativa. Kind of data set: Safener indices, ratio of compound effect of Oryza sativa (rice) growth rate to relieving activity against bensulfuron-methyl induced injury to Oryza sativa growth rate at 0.1 uM.
Conditions: not given
Take `CCOC(=O)c1ccc(NC(=O)N[C@H](C)c2ccccc2)cc1`: the Ratio is on record as 11.

With `C[C@@H](NC(=O)Nc1ccccc1F)c1ccccc1`, the Ratio was determined as 3.

With `CC(C)c1ccc(NC(=O)N[C@@H](C)c2ccccc2)cc1`, the Ratio was found to be 21.

As for `CCOC(=O)c1ccccc1NC(=O)N[C@H](C)c1ccccc1`, the Ratio was determined as 6.

With `Cc1ccc(NC(=O)N[C@@H](C)c2ccccc2)c(F)c1`, the Ratio is 53.

As for `CCCc1ccc(NC(=O)N[C@@H](C)c2ccccc2)cc1`, the Ratio was found to be 30.

Turning to `C[C@H](NC(=O)Nc1cccc(F)c1)c1ccccc1`, the Ratio was found to be 21.

`C[C@H](NC(=O)Nc1ccc(F)cc1)c1ccccc1`: the Ratio stood at 7.

On to `C[C@@H](NC(=O)Nc1ccc(F)c(F)c1)c1ccccc1`, for which the Ratio worked out at 4.

For `CC(=O)c1ccc(NC(=O)N[C@H](C)c2ccccc2)cc1`, the Ratio was found to be 4.

Another data set relates to Oryza sativa. Kind of data set: Relieving activity against bensulfuron-methyl induced injury to Oryza sativa (rice) assessed as growth rate at 0.1 uM (Rbv = 46 to 53%). It counts as functional.
Conditions: not given
In the case of `CCOC(=O)c1ccc(NC(=O)N[C@H](C)c2ccccc2)cc1`, the Activity is on record as 56%.

In the case of `C[C@@H](NC(=O)Nc1ccccc1F)c1ccccc1`, the Activity was determined as 47%.

For the compound `CC(C)c1ccc(NC(=O)N[C@@H](C)c2ccccc2)cc1`, the Activity was 57%.

`CCOC(=O)c1ccccc1NC(=O)N[C@H](C)c1ccccc1`: the Activity worked out at 53%.

With `Cc1ccc(NC(=O)N[C@@H](C)c2ccccc2)c(F)c1`, the Activity was found to be 77%.

For `CCCc1ccc(NC(=O)N[C@@H](C)c2ccccc2)cc1`, the Activity is listed as 66%.

Take `C[C@H](NC(=O)Nc1cccc(F)c1)c1ccccc1`: the Activity came to 59%.

For the compound `C[C@H](NC(=O)Nc1ccc(F)cc1)c1ccccc1`, the Activity was found to be 51%.

For the compound `C[C@@H](NC(=O)Nc1ccc(F)c(F)c1)c1ccccc1`, the Activity was 52%.

Regarding `CC(=O)c1ccc(NC(=O)N[C@H](C)c2ccccc2)cc1`, the Activity is on record as 49%.

The next data set deals with Oryza sativa. The data set can be described thus: Effect on Oryza sativa (rice) assessed as growth rate at 1 uM relative to control. It counts as organism-based. The following applies: in vivo.
With `CCOC(=O)c1ccc(NC(=O)N[C@H](C)c2ccccc2)cc1`, the Activity is on record as 100%.

Turning to `C[C@@H](NC(=O)Nc1ccccc1F)c1ccccc1`, the Activity worked out at 95%.

`CC(C)c1ccc(NC(=O)N[C@@H](C)c2ccccc2)cc1`: the Activity is reported as 96%.

Take `CCOC(=O)c1ccccc1NC(=O)N[C@H](C)c1ccccc1`: the Activity is 100%.

For `Cc1ccc(NC(=O)N[C@@H](C)c2ccccc2)c(F)c1`, the Activity turned out to be 99%.

As to `CCCc1ccc(NC(=O)N[C@@H](C)c2ccccc2)cc1`, the Activity amounted to 76%.

Regarding `C[C@H](NC(=O)Nc1cccc(F)c1)c1ccccc1`, the Activity turned out to be 94%.

For the compound `C[C@H](NC(=O)Nc1ccc(F)cc1)c1ccccc1`, the Activity was determined as 97%.

Consider `C[C@@H](NC(=O)Nc1ccc(F)c(F)c1)c1ccccc1`, for which the Activity is 99%.

In the case of `CC(=O)c1ccc(NC(=O)N[C@H](C)c2ccccc2)cc1`, the Activity is given as 93%.

The test system of another data set is Oryza sativa. The data set can be described thus: Effect on Oryza sativa (rice) assessed as growth rate at 0.1 uM relative to control. It counts as organism-based. The following applies: in vivo.
On to `CCOC(=O)c1ccc(NC(=O)N[C@H](C)c2ccccc2)cc1`, for which the Activity is on record as 101%.

Take `C[C@@H](NC(=O)Nc1ccccc1F)c1ccccc1`: the Activity was 97%.

Regarding `CC(C)c1ccc(NC(=O)N[C@@H](C)c2ccccc2)cc1`, the Activity turned out to be 98%.

Take `CCOC(=O)c1ccccc1NC(=O)N[C@H](C)c1ccccc1`: the Activity is given as 100%.

For `Cc1ccc(NC(=O)N[C@@H](C)c2ccccc2)c(F)c1`, the Activity turned out to be 100%.

Take `CCCc1ccc(NC(=O)N[C@@H](C)c2ccccc2)cc1`: the Activity is on record as 97%.

Take `C[C@H](NC(=O)Nc1cccc(F)c1)c1ccccc1`: the Activity is recorded as 97%.

On to `C[C@H](NC(=O)Nc1ccc(F)cc1)c1ccccc1`, for which the Activity is 96%.

On to `C[C@@H](NC(=O)Nc1ccc(F)c(F)c1)c1ccccc1`, for which the Activity came out at 99%.

Consider `CC(=O)c1ccc(NC(=O)N[C@H](C)c2ccccc2)cc1`, for which the Activity was 96%.

Another data set has as its system Oryza sativa. Kind of data set: Relieving activity against bensulfuron-methyl induced injury to Oryza sativa (rice) assessed as growth rate at 10 uM (Rbv = 46 to 53%). In kind it is functional.
Conditions: not given
With `CCOC(=O)c1ccc(NC(=O)N[C@H](C)c2ccccc2)cc1`, the Activity is given as 89%.

In the case of `C[C@@H](NC(=O)Nc1ccccc1F)c1ccccc1`, the Activity is given as 76%.

`CC(C)c1ccc(NC(=O)N[C@@H](C)c2ccccc2)cc1`: the Activity stood at 79%.

On to `CCOC(=O)c1ccccc1NC(=O)N[C@H](C)c1ccccc1`, for which the Activity turned out to be 77%.

Turning to `Cc1ccc(NC(=O)N[C@@H](C)c2ccccc2)c(F)c1`, the Activity was determined as 95%.

With `CCCc1ccc(NC(=O)N[C@@H](C)c2ccccc2)cc1`, the Activity came out at 69%.

With `C[C@H](NC(=O)Nc1cccc(F)c1)c1ccccc1`, the Activity is recorded as 79%.

Consider `C[C@H](NC(=O)Nc1ccc(F)cc1)c1ccccc1`, for which the Activity turned out to be 86%.

On to `C[C@@H](NC(=O)Nc1ccc(F)c(F)c1)c1ccccc1`, for which the Activity was 73%.

On to `CC(=O)c1ccc(NC(=O)N[C@H](C)c2ccccc2)cc1`, for which the Activity came to 79%.

For the next data set, the system named is Oryza sativa. Kind of data set: Safener indices, ratio of compound effect of Oryza sativa (rice) growth rate to relieving activity against bensulfuron-methyl induced injury to Oryza sativa growth rate at 1 uM.
Conditions: not given
Consider `CCOC(=O)c1ccc(NC(=O)N[C@H](C)c2ccccc2)cc1`, for which the Ratio is 56.

As to `C[C@@H](NC(=O)Nc1ccccc1F)c1ccccc1`, the Ratio is given as 32.

Take `CC(C)c1ccc(NC(=O)N[C@@H](C)c2ccccc2)cc1`: the Ratio came out at 69.

`CCOC(=O)c1ccccc1NC(=O)N[C@H](C)c1ccccc1`: the Ratio amounted to 25.

Turning to `Cc1ccc(NC(=O)N[C@@H](C)c2ccccc2)c(F)c1`, the Ratio was found to be 72.

As to `CCCc1ccc(NC(=O)N[C@@H](C)c2ccccc2)cc1`, the Ratio is 47.

For `C[C@H](NC(=O)Nc1cccc(F)c1)c1ccccc1`, the Ratio is reported as 51.

In the case of `C[C@H](NC(=O)Nc1ccc(F)cc1)c1ccccc1`, the Ratio was 47.

For the compound `C[C@@H](NC(=O)Nc1ccc(F)c(F)c1)c1ccccc1`, the Ratio is 21.

For the compound `CC(=O)c1ccc(NC(=O)N[C@H](C)c2ccccc2)cc1`, the Ratio is recorded as 27.

System in the next data set: not listed separately
The data set can be described thus: Hydrophobicity, log K of the compound. The following applies: octanol/water. In kind it is physicochemical.
On to `CCOC(=O)c1ccc(NC(=O)N[C@H](C)c2ccccc2)cc1`, for which the “log K” value came to 0.415.

Turning to `C[C@@H](NC(=O)Nc1ccccc1F)c1ccccc1`, the “log K” value was 0.367.

Regarding `CC(C)c1ccc(NC(=O)N[C@@H](C)c2ccccc2)cc1`, the “log K” value is on record as 0.577.

Take `CCOC(=O)c1ccccc1NC(=O)N[C@H](C)c1ccccc1`: the “log K” value is reported as 0.667.

For `Cc1ccc(NC(=O)N[C@@H](C)c2ccccc2)c(F)c1`, the “log K” value was 0.459.

Turning to `CCCc1ccc(NC(=O)N[C@@H](C)c2ccccc2)cc1`, the “log K” value is 0.602.

Take `C[C@H](NC(=O)Nc1cccc(F)c1)c1ccccc1`: the “log K” value was 0.363.

As to `C[C@H](NC(=O)Nc1ccc(F)cc1)c1ccccc1`, the “log K” value stood at 0.307.

On to `C[C@@H](NC(=O)Nc1ccc(F)c(F)c1)c1ccccc1`, for which the “log K” value was 0.398.

Regarding `CC(=O)c1ccc(NC(=O)N[C@H](C)c2ccccc2)cc1`, the “log K” value is on record as 0.227.

The subject of the next data set is Oryza sativa. Kind of data set: Relieving activity against bensulfuron-methyl induced injury to Oryza sativa (rice) assessed as growth rate at 1 uM (Rbv = 46 to 53%). In kind it is functional.
Conditions: not given
Regarding `CCOC(=O)c1ccc(NC(=O)N[C@H](C)c2ccccc2)cc1`, the Activity is listed as 78%.

For `C[C@@H](NC(=O)Nc1ccccc1F)c1ccccc1`, the Activity is reported as 64%.

Take `CC(C)c1ccc(NC(=O)N[C@@H](C)c2ccccc2)cc1`: the Activity is 83%.

In the case of `CCOC(=O)c1ccccc1NC(=O)N[C@H](C)c1ccccc1`, the Activity came to 63%.

With `Cc1ccc(NC(=O)N[C@@H](C)c2ccccc2)c(F)c1`, the Activity turned out to be 87%.

On to `CCCc1ccc(NC(=O)N[C@@H](C)c2ccccc2)cc1`, for which the Activity was 68%.

For `C[C@H](NC(=O)Nc1cccc(F)c1)c1ccccc1`, the Activity amounted to 74%.

In the case of `C[C@H](NC(=O)Nc1ccc(F)cc1)c1ccccc1`, the Activity is reported as 72%.

Consider `C[C@@H](NC(=O)Nc1ccc(F)c(F)c1)c1ccccc1`, for which the Activity was found to be 60%.

As for `CC(=O)c1ccc(NC(=O)N[C@H](C)c2ccccc2)cc1`, the Activity is reported as 59%.
